Data: patent publication US20070191367A1, “3-SPIROINDOLIN-2-ONE DERIVATIVES, PREPARATION AND THERAPEUTIC USE THEREOF” (SANOFI-AVENTIS, priority 2004, published 2007)
pIC50: −log10 of the molar value.

Biological target: T1, recombinant human vasopressin V2 receptors (Homo sapiens, UniProt P30518)
T1 construct: expressed in transfected cells; host or cells: CHO cell line (plasma membranes)
Test: In vitro binding assay, [H3]-AVP displacement at vasopressin V2 receptors
Settings: plasma membranes from tissues or CHO cell line; 3.5 nM [H3]-AVP; 45 minutes at 25° C.; read-out: IC50 (concentration of product that inhibits 50% of the specific binding)
Procedure: The affinity of the compounds of the invention for vasopressin V2 receptors was measured in in vitro binding assays, as described in J. Pharmacol. Exp. Ther., (2002), 300, pp. 1122-1130.
Plasma membranes (approximately 20 μg/ml) originating from tissues or the CHO cell line expressing recombinant human vasopressin V2 receptors are incubated for 45 minutes at 25° C. in 200 μl of TRIS-HCl buffer (50 mM; pH 8.2) containing 2 mM of MgCl2, 1 mM of EDTA, 0.1% of BSA, 1 mg/ml of bacitracin and 3.5 nM of [H^3]-AVP. The reaction is stopped by filtration and washing over GF/B filters. The nonspecific binding is determined in the presence of 1 μM of AVP. The compounds of the invention, dissolved beforehand at the concentration of 10^−2 M in DMSO, are tested in a dilution range.
For each concentration, the results are expressed as percentage inhibition of specific binding. An IC50 (concentration of product that inhibits 50% of the specific binding) is determined for each of the products using the “RS1 binding” program (BBN Domain, Cambridge, Mass).

T1 sequence (P30518 whole entry): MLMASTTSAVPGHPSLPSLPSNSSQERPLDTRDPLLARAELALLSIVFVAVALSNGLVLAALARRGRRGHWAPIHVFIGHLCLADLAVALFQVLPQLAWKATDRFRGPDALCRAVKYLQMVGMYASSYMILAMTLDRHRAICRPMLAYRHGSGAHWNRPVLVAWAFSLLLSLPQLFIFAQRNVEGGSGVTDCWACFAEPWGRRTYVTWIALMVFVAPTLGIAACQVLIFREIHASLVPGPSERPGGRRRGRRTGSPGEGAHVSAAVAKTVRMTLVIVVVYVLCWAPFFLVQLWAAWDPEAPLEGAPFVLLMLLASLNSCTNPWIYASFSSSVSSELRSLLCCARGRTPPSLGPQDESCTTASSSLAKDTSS

pIC50: ~8.14
Compound: CCOc1ccc2c(c1)C1(CCC(OCC(=O)N3CCOCC3)CC1)C(=O)N2S(=O)(=O)c1ccc(C(=O)NC(C)(C)C)cc1OC (stereo not shown) [Example]
